Assay results: US4508663A, “Process for preparing thiosulfenamide derivatives of N-phosphonomethylglycinonitriles” (Monsanto Company, priority 1983, dated 1985)

Columns and labels:
Test in all cases: post-emergence herbicidal activity, greenhouse
Assay type in all cases: in vivo
Crabgrass = details: Table II, 4 WAT
Summary of the method: (§1)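 Plants grown from seed or perennial propagules in greenhouse soil pans were sprayed at two to three weeks with compound solution or suspension containing about 0.4% emulsifier, at the stated application rates. Injury relative to untreated controls was scored at approximately two and four weeks after treatment on a post-emergence activity index.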

Canada Thistle = details: Table I, 4 WAT
Summary of the method: as §1

Wheat = details: Table II, 4 WAT
Summary of the method: as §1

Sugar Beet = details: Table II, 4 WAT
Summary of the method: as §1

Johnsongrass = details: Table I, 4 WAT
Summary of the method: as §1

Barnyardgrass = details: 4 WAT
Summary of the method: as §1

Downy Brome = details: 4 WAT
Summary of the method: as §1

Rice = details: Table II, 4 WAT
Summary of the method: as §1

Sorghum = details: Table II, 4 WAT
Summary of the method: as §1

Panicum Spp = details: Table II, 4 WAT
Summary of the method: as §1

Cocklebur = details: 4 WAT
Summary of the method: as §1

Morningglory = details: 4 WAT
Summary of the method: as §1

Quackgrass = details: Table I, 4 WAT
Summary of the method: as §1

Hemp Sesbania = details: Table II, 4 WAT
Summary of the method: as §1

Lambsquarters = details: 4 WAT
Summary of the method: as §1

Wild Buckwheat = details: Table II, 4 WAT
Summary of the method: as §1

Soybean = details: Table II, 4 WAT
Summary of the method: as §1

Smartweed = details: 4 WAT
Summary of the method: as §1

Velvetleaf = details: 4 WAT
Summary of the method: as §1

Yellow Nutsedge = details: Table I, 4 WAT
Summary of the method: as §1

SMILES: N#CCN(CP(=O)(Oc1ccccc1)Oc1ccccc1)SCl [I]
- post-emergence herbicidal activity index (Crabgrass; 0.28 kg/h): 0 (0-24% control)
- post-emergence herbicidal activity index (Crabgrass; 1.12 kg/h): 2 (50-74% control)
- post-emergence herbicidal activity index (Canada Thistle; 5.6 kg/h): 1 (25-49% control)
- post-emergence herbicidal activity index (Canada Thistle; 11.2 kg/h): 2 (50-74% control)
- post-emergence herbicidal activity index (Wheat; 0.28 kg/h): 0 (0-24% control)
- post-emergence herbicidal activity index (Wheat; 1.12 kg/h): 1 (25-49% control)
- post-emergence herbicidal activity index (Wheat; 5.6 kg/h): 1 (25-49% control)
- post-emergence herbicidal activity index (Sugar Beet; 0.28 kg/h): 0 (0-24% control)
- post-emergence herbicidal activity index (Sugar Beet; 1.12 kg/h): 0 (0-24% control)
- post-emergence herbicidal activity index (Sugar Beet; 5.6 kg/h): 0 (0-24% control)
- post-emergence herbicidal activity index (Johnsongrass; 5.6 kg/h): 1 (25-49% control)
- post-emergence herbicidal activity index (Johnsongrass; 11.2 kg/h): 1 (25-49% control)
- post-emergence herbicidal activity index (Barnyardgrass; Table I, 5.6 kg/h): 1 (25-49% control)
- post-emergence herbicidal activity index (Barnyardgrass; Table I, 11.2 kg/h): 2 (50-74% control)
- post-emergence herbicidal activity index (Barnyardgrass; Table II, 0.28 kg/h): 0 (0-24% control)
- post-emergence herbicidal activity index (Barnyardgrass; Table II, 1.12 kg/h): 1 (25-49% control)
- post-emergence herbicidal activity index (Barnyardgrass; Table II, 5.6 kg/h): 2 (50-74% control)
- post-emergence herbicidal activity index (Downy Brome; Table I, 5.6 kg/h): 0 (0-24% control)
- post-emergence herbicidal activity index (Downy Brome; Table I, 11.2 kg/h): 2 (50-74% control)
- post-emergence herbicidal activity index (Downy Brome; Table II, 0.28 kg/h): 1 (25-49% control)
- post-emergence herbicidal activity index (Downy Brome; Table II, 1.12 kg/h): 0 (0-24% control)
- post-emergence herbicidal activity index (Downy Brome; Table II, 5.6 kg/h): 1 (25-49% control)
- post-emergence herbicidal activity index (Rice; 0.28 kg/h): 0 (0-24% control)
- post-emergence herbicidal activity index (Rice; 1.12 kg/h): 0 (0-24% control)
- post-emergence herbicidal activity index (Rice; 5.6 kg/h): 1 (25-49% control)
- post-emergence herbicidal activity index (Sorghum; 0.28 kg/h): 1 (25-49% control)
- post-emergence herbicidal activity index (Sorghum; 1.12 kg/h): 2 (50-74% control)
- post-emergence herbicidal activity index (Sorghum; 5.6 kg/h): 3 (75-99% control)
- post-emergence herbicidal activity index (Panicum Spp; 0.28 kg/h): 0 (0-24% control)
- post-emergence herbicidal activity index (Panicum Spp; 1.12 kg/h): 0 (0-24% control)
- post-emergence herbicidal activity index (Panicum Spp; 5.6 kg/h): 1 (25-49% control)
- post-emergence herbicidal activity index (Cocklebur; Table I, 5.6 kg/h): 3 (75-99% control)
- post-emergence herbicidal activity index (Cocklebur; Table I, 11.2 kg/h): 2 (50-74% control)
- post-emergence herbicidal activity index (Cocklebur; Table II, 0.28 kg/h): 2 (50-74% control)
- post-emergence herbicidal activity index (Cocklebur; Table II, 1.12 kg/h): 2 (50-74% control)
- post-emergence herbicidal activity index (Cocklebur; Table II, 5.6 kg/h): 2 (50-74% control)
- post-emergence herbicidal activity index (Morningglory; Table I, 5.6 kg/h): 2 (50-74% control)
- post-emergence herbicidal activity index (Morningglory; Table I, 11.2 kg/h): 2 (50-74% control)
- post-emergence herbicidal activity index (Morningglory; Table II, 0.28 kg/h): 0 (0-24% control)
- post-emergence herbicidal activity index (Morningglory; Table II, 1.12 kg/h): 1 (25-49% control)
- post-emergence herbicidal activity index (Morningglory; Table II, 5.6 kg/h): 2 (50-74% control)
- post-emergence herbicidal activity index (Quackgrass; 5.6 kg/h): 0 (0-24% control)
- post-emergence herbicidal activity index (Quackgrass; 11.2 kg/h): 1 (25-49% control)
- post-emergence herbicidal activity index (Hemp Sesbania; 0.28 kg/h): 0 (0-24% control)
- post-emergence herbicidal activity index (Hemp Sesbania; 1.12 kg/h): 0 (0-24% control)
- post-emergence herbicidal activity index (Hemp Sesbania; 5.6 kg/h): 2 (50-74% control)
- post-emergence herbicidal activity index (Lambsquarters; Table I, 5.6 kg/h): 4 (100% control)
- post-emergence herbicidal activity index (Lambsquarters; Table I, 11.2 kg/h): 3 (75-99% control)
- post-emergence herbicidal activity index (Lambsquarters; Table II, 0.28 kg/h): 2 (50-74% control)
- post-emergence herbicidal activity index (Lambsquarters; Table II, 1.12 kg/h): 4 (100% control)
- post-emergence herbicidal activity index (Lambsquarters; Table II, 5.6 kg/h): 4 (100% control)
- post-emergence herbicidal activity index (Wild Buckwheat; 0.28 kg/h): 0 (0-24% control)
- post-emergence herbicidal activity index (Wild Buckwheat; 1.12 kg/h): 0 (0-24% control)
- post-emergence herbicidal activity index (Wild Buckwheat; 5.6 kg/h): 2 (50-74% control)
- post-emergence herbicidal activity index (Soybean; 0.28 kg/h): 1 (25-49% control)
- post-emergence herbicidal activity index (Soybean; 1.12 kg/h): 1 (25-49% control)
- post-emergence herbicidal activity index (Soybean; 5.6 kg/h): 2 (50-74% control)
- post-emergence herbicidal activity index (Smartweed; Table I, 5.6 kg/h): 0 (0-24% control)
- post-emergence herbicidal activity index (Smartweed; Table I, 11.2 kg/h): 2 (50-74% control)
- post-emergence herbicidal activity index (Smartweed; Table II, 0.28 kg/h): 1 (25-49% control)
- post-emergence herbicidal activity index (Smartweed; Table II, 1.12 kg/h): 0 (0-24% control)
- post-emergence herbicidal activity index (Velvetleaf; Table I, 5.6 kg/h): 2 (50-74% control)
- post-emergence herbicidal activity index (Velvetleaf; Table I, 11.2 kg/h): 2 (50-74% control)
- post-emergence herbicidal activity index (Velvetleaf; Table II, 0.28 kg/h): 1 (25-49% control)
- post-emergence herbicidal activity index (Velvetleaf; Table II, 1.12 kg/h): 1 (25-49% control)
- post-emergence herbicidal activity index (Velvetleaf; Table II, 5.6 kg/h): 2 (50-74% control)
- post-emergence herbicidal activity index (Yellow Nutsedge; 5.6 kg/h): 2 (50-74% control)
- post-emergence herbicidal activity index (Yellow Nutsedge; 11.2 kg/h): 2 (50-74% control)
